US8481005B2, “Methods to prevent cytotoxicity using N-acetyl-cysteine” (priority 2006, dated 2013)

Legend:
active caspase 3 = experiment: Active caspase 3 staining in PBMCs treated with HEMA or CDDP; format: cell-based; details: HEMA 0.0164M
[1] = test system: osteopontin (OPN) and osteocalcin (OCN); experiment: RT-PCR for osteopontin and osteocalcin in rat dental pulp stromal cells; format: cell-based; details: media containing ascorbic acid and β-glycerophosphate
Text: Rat dental pulp stromal cells were again cultured under 3 different conditions: (1) DMEM alone (undifferentiated); (2) DMEM+β-glycerophosphate+ascorbic acid (differentiated−Dex); and (3) DMEM+β-glycerophosphate+ascorbic acid+dexamethasone (differentiated+Dex). The differentiation of the cells under these different culture conditions was then confirmed by an RT-PCR to assay for genes which are induced during differentiation (osteopontin and osteocalcin). Osteopontin (OPN), is an early osteoblastic marker and osteocalcin (OCN) a late stage marker.
RNA was extracted from the cells and PCR was again performed for OPN and OCN.

[2] = test system: differentiated pulp cells (odontoblasts); experiment: Composite discs on differentiated pulp cells, FITC-Annexin V/PI; format: cell-based; details: completely cured composite discs in 0.4 μm inserts; one week
Experimental: Next, the effects of routinely used composites on the odontoblasts were tested. The composite discs were made according to ADA specifications. These discs were completely cured for a total time of about 90 seconds. The discs were then placed into culture dish inserts (Millipore, Calif.). […] The insert along with the composite disc were placed into the well containing the differentiated pulp cells. After one week of incubation at about 37° C. the cells were removed and the numbers of apoptotic cells were analyzed using FITC-Annexin V/PI as described previously.

[3] = test system: teeth and surrounding tissue; experiment: Rat tooth bleaching with or without NAC: photographs of teeth and tissue; format: in vivo
Experimental: Rats were divided into the following groups: A: control, unbleached; B: bleached with no NAC; and C: Bleached with NAC. The bleaching agent used in the following studies was Oral B Rembrandt whitening system (containing 33% hydrogen peroxide and carbamide) often used in dental offices (chair side). NAC was initially painted on teeth at a 20 mM concentration for 5 minutes. Next a bleaching agent was applied for 5 hours, after which the teeth were extracted, and pulp was obtained from each group and treated with trypsin/EDTA (0.25%) and collagenase (0.02%). […] Also note that bleaching in the presence of NAC (F) was as effective as bleaching without the NAC (E). […] Note the white tissue in the absence of NAC which represents dead and dying tissue.

gingival cells = experiment: Bleaching agent on rat palatal gingiva: gingival cell growth; format: in vivo, rats; details: bleaching agent on palatal gingiva 5 hours, without or with NAC; cells grown 21 days
Experimental: For gingival cells, the bleaching agent was applied in the same order of experimental groups to the palatal gingiva for 5 hours, washed and excised and minced and treated with collagenase (0.01%) for 48 hours before the single cell suspensions were prepared by washing and resuspending in DMEM. The cells were allowed to grow to confluency for 21 days before photographs were taken. […] FIG. 46 provides a graphical representation of cell survival.

[4] = test system: dental pulp stromal cells; experiment: Rat tooth bleaching: dental pulp stromal cell growth, count and ALP; format: in vivo, rats; details: bleaching agent 5 hours, without or with NAC 20 mM painted 5 minutes; 12-21 days
Experimental: Similar studies were also carried out using dental pulp stromal cells. Rats were divided into three groups: (1) Control (no bleach); (2) Bleach; and (3) Bleach and NAC. In these studies, NAC was initially painted on to the teeth (20 mM concentration) for 5 minutes and then bleaching agent applied for 5 hours, after which the teeth were extracted, and pulp was obtained from each group. Pulp was treated with trypsin/EDTA (0.25%) and collagenase (0.02%) to obtain single cell suspension of the cells, washed and resuspended in DMEM containing β-glycerophosphate (10 mM) and ascorbic acid (50 μg/ml), and allowed to grow to confluency, before either photographs were taken (12-21 days; FIG. 47); cells were counted (21 days; FIG. 48); or ALP staining was performed (21 days; FIG. 49). […] Whitening Strips

IL-2 treated PBMCs = experiment: Tritiated thymidine proliferation of IL-2 treated PBMCs; format: cell-based; details: HEMA and NAC, 24 hours with tritiated thymidine
Experimental: Tritiated thymidine was added to the cells and after 24 hours of incubation assessed for proliferation.

odontoblasts = experiment: Cell viability of rat odontoblasts; format: cell-based; details: 0.0164M-0.00164M HEMA with NAC 20 mM, about 12-14 hours, versus HEMA alone
Experimental: Differentiation was induced by the addition of about 10 mM of β-glycerophosphate and about 50 μg/ml of ascorbic acid.

[5] = test system: human dental pulp stromal cells; experiment: Extracted human teeth restored with composite resin with or without NAC: pulp cell growth; details: restorations left 5 hours; 14 days of incubation
Experimental: Three freshly extracted human teeth were obtained. Cavity preparations were performed on 2 freshly extracted third molars before restoration. One molar was left untouched and used as control. Specifically, tooth #1 was left untreated; tooth #2 was restored with composite resin alone; and tooth #3 was restored with composite resin after application of NAC. […] Single cell suspensions of control and each restored tooth were then cultured in the presence of β-glycerophosphate (10 mM) and ascorbic acid (50 μg/ml) and microscopic pictures taken after 14 days of incubation for growth.

| SMILES | increase in active caspase 3 staining compared to the CDDP treated cells (active caspase 3) | active caspase 3 staining (active caspase 3; CDDP) [%] | differentiation markers OPN and OCN [1] | apoptotic cells (FITC-Annexin V/PI) [2] | efficacy or potency of the bleaching system ([3]; NAC 20 mM painted on teeth 5 minutes, then bleaching agent 5 hours) | white (dead and dying) tissue after bleaching ([3]; bleaching agent 5 hours, without or with NAC 20 mM) | gingival cell death (gingival cells) | cytotoxicity and cell death of dental pulp stromal cells [4] | proliferation (IL-2 treated PBMCs) | percentage of viable cells (odontoblasts) | growth of pulp cells [5] |
| --- | --- | --- | --- | --- | --- | --- | --- | --- | --- | --- | --- |
| C=C(C)C(=O)OCCO [HEMA, hydroxyethyl methacrylate] | about 2 fold | 42 |  |  |  |  |  |  |  |  |  |
| CC(=O)N[C@@H](CS)C(=O)O [NAC, N-acetyl-cysteine] |  |  | express higher levels of OPN and OCN | inhibits cell death induced by light cured composite disks | does not decrease the efficacy or potency of the bleaching system | the amount of white tissue is minimal | ameliorated | could be reversed | can prevent HEMA-induced loss of proliferation | percentage of viable cells increases | growth and expansion of the cells resulted |
